From ChEMBL document CHEMBL1201862, “PubChem BioAssay data set” (2004)
Each block holds one molecule with its values, some of them ahead of it. Activity calls are given as the source filed them.

Columns and labels:
[1] = MALME3 melanoma cell viability reduction, dose response, orthogonal assay for MITF inhibitor project, CellTiter-Glo luminescence, dry powder, set 5 (AID 651584); format: functional, cell-based; conditions: MALME-3
[2] = TRPM1 promoter luciferase reporter signal decrease, dose response, MITF inhibitor project, cell-based, SK-MEL-5, dry powder, set 9 (AID 651588); format: functional
[3] = MITF Orthogonal Assay: SK-MEL-5 CTG Assay Measured in Cell-Based System Using Plate Reader - 2084-02_Inhibitor_Dose_DryPowder_Activity_Set7.; format: functional
[4] = A375 melanoma cell viability loss, dose response, counter-screen for MITF modulator project, CellTiter-Glo luminescence, dry powder, set 9 (AID 651591); format: functional, cell-based; conditions: A-375
[5] = MITF: Counter assay: A375 proliferation Measured in Cell-Based System Using Plate Reader - 2084-03_Inhibitor_Dose_DryPowder_Activity_Set8.; format: functional; conditions: A-375
[6] = SK-MEL-5 parental cell viability reduction, dose response, orthogonal assay for MITF inhibitor project, CellTiter-Glo luminescence, dry powder, set 8 (AID 651586); format: functional, cell-based
[7] = MITF Orthogonal Assay: MALME3 CTG Assay Measured in Cell-Based System Using Plate Reader - 2084-04_Inhibitor_Dose_DryPowder_Activity_Set6.; format: functional; conditions: MALME-3
[8] = TRPM1 promoter luciferase reporter signal decrease, dose response, MITF inhibitor project, cell-based, SK-MEL-5, dry powder, set 8 (AID 624430); format: functional
Protein Tat = Protein Tat (Human immunodeficiency virus type 1 group M subtype B (isolate HXB2)(HIV-1), UniProt P04608); format: functional;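 further: tat binding to TAR RNA read out by fluorescence polarization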
Chain of Protein Tat (P04608 whole entry): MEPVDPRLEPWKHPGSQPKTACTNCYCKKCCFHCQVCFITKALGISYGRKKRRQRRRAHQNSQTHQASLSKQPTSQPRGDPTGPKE

[9] = Concentration-dependent survival of SW480 colon cancer line, luminescence detection with CellTiter-Glo, half-maximal inhibitory concentration (AID 1117338); format: functional
[10] = RKO cell viability reduction, dose response, CellTiter-Glo luminescence (AID 1117322); format: functional
[11] = HCT116 cell viability decrease, GSK3B pretreatment – CellTiter-Glo, IC50, dose response (AID 1117339); format: functional; conditions: HCT-116
[12] = CellTiter-Glo luminescent dose response of DLD-1 viability loss (AID 1117352); format: functional
[13] = cytotoxicity toward HCT116 cells – cell-based, CellTiter-Glo luminescence, IC50, dose response (AID 1117332); format: functional; conditions: HCT-116
[14] = SNU-C1 cell viability reduction, dose response, CellTiter-Glo luminescence (AID 1117323); format: functional, cell-based
[15] = cytotoxicity toward HT-29 cells – cell-based, CellTiter-Glo luminescence, IC50, dose response (AID 1117330); format: functional
[16] = cytotoxicity toward Colo320 cells – cell-based, CellTiter-Glo luminescence, IC50, dose response (AID 1117334); format: functional; conditions: COLO 320

SMILES: O=C1C(Nc2ccc(Br)cc2)=C(N2CCCCC2)C(=O)c2ccccc21
AC50 [1]: 15.7 µM (active) | AC50 [2]: 15.3 µM (active) | AC50 [3]: 4.57 µM (active) | AC50 [4]: 32.8 µM (active) | AC50 [5]: 47.2 µM (active) | AC50 [6]: > 70 µM (inactive) | AC50 [7]: 15.7 µM (active) | AC50 [8]: 4.44 µM (active)

IC50 (Protein Tat): > 100 µM (active)
SMILES: CCSC1=C(C#N)C(c2cccs2)/C(=C(\O)OC)C(C)=N1 (configuration not stated)

SMILES: CSc1ccc2c(c1)N(CCC1CCCCN1C)c1ccccc1S2 (configuration not stated) [THIORIDAZINE]
IC50 [9]: 3.71 µM (active) | IC50 [10]: 5.49 µM (inactive) | IC50 [11]: 8.11 µM (inactive) | IC50 [12]: > 20 µM (inactive) | IC50 [13]: > 20 µM (inactive) | IC50 [14]: 2.9 µM (active) | IC50 [15]: 5.9 µM (inactive) | IC50 [16]: 7.92 µM (inactive)
